In the assay the target is Polymerase acidic protein (Influenza A virus (A/Puerto Rico/8/1934(H1N1)), UniProt P03433). Nature of the assay: Inhibition of cap 1 ALMV primed Influenza transcriptase.
`CC(=O)/C=C(\O)C(=O)O` had an IC50 of 307 µM.

With `O=C(CC(O)C(=O)O)c1ccccc1` (stereo not drawn), the IC50 is more than 500 µM.

As for `O=C(O)/C(O)=C/c1cc2ccccc2o1`, the IC50 was more than 500 µM.

In turn, `O=C(O)/C(O)=C/c1nc2ccccc2s1` registered an IC50 of more than 500 µM.

`O=C(O)/C(O)=C/C(=O)C1CCCCC1`: the IC50 was 29.4 µM.

The molecule `Cn1c(/C=C(\O)C(=O)O)nc2ccccc21` gave an IC50 of more than 500 µM.

Turning to `O=C(O)/C(O)=C/S(=O)(=O)c1ccccc1`, the concentration for half-maximal inhibition (IC50) is more than 500 µM.

Regarding `NC(=O)/C(O)=C/C(=O)C1CCCCC1`, the IC50 is more than 500 µM.

As to `O=C(O)C(=O)CCc1ccccc1`, the IC50 is more than 500 µM.

Consider `CC(C)C(=O)/C=C(\O)C(=O)O`, for which the IC50 stood at 56.7 µM.

The molecule `O=C(O)/C(O)=C/C(=O)C1(Cc2ccc(Cl)cc2)CCCN(S(=O)(=O)Cc2ccccc2)C1` (stereo not drawn) registered an IC50 of 0.19 µM.

As to `NC(CC(=O)c1ccccc1)C(=O)O` (stereo not drawn), the half-maximal inhibitory concentration (IC50) was more than 500 µM.

For `O=C(O)/C(O)=C/c1nc2ccccc2o1`, it took 100 µM to reach half-maximal inhibition (IC50).

A word on the IC50: it is the concentration that gives 50% inhibition. A higher IC50 goes with lower potency.

(Values after ChEMBL document CHEMBL2040549, “Inhibition of cap (m7GpppXm)-dependent endonuclease of influenza virus by 4-substituted 2,4-dioxobutanoic acid compounds” (Antimicrob Agents Chemother, 1994).)
